We go through five molecules from patent US11572398B2, “GLP-1 derivatives and uses thereof” (Novo Nordisk A/S, priority 2014, dated 2023).

Where two headings read alike, the source gives them in different places.

Data set [1] can be described thus: in vivo. The settings on record: male, Göttingen, minipig, iv.
Method: The purpose of this study is to determine the protraction in vivo of the GLP-1 derivatives after i.v. administration to minipigs, i.e. the prolongation of their time in the body and thereby their time of action. This is done in a pharmacokinetic (PK) study, where the terminal half-life of the derivative in question is determined. By terminal half-life is meant the time it takes to halve a certain plasma concentration in the terminal elimination phase.
Male Göttingen minipigs were obtained from Ellegaard Göttingen Minipigs (Dalmose, Denmark) approximately 7-14 months of age and weighing approximately 16-35 kg were used in the studies. The minipigs were housed either individually (pigs with permanent catheters) or in a group and fed restrictedly once or twice daily with SDS minipig diet (Special Diets Services, Essex, UK).
After at least 2 weeks of acclimatisation two permanent central venous catheters were implanted in vena cava caudalis or cranialis in each animal. The animals were allowed 1 week recovery after the surgery, and were then used for repeated pharmacokinetic studies with a suitable wash-out period between successive GLP-1 derivative dosings.
Blood samples (for example 0.8 ml) were collected in EDTA buffer (8 mM) and then centrifuged at 4° C. and 1942G for 10 minutes.
Plasma was pipetted into Micronic tubes on dry ice, and kept at −20° C. until analysed for plasma concentration of the respective GLP-1 compound using LOCI. Individual plasma concentration-time profiles were analyzed by a non-compartmental pharmacokinetic method in Phoenix v. 6.2 (Pharsight Inc., Mountain View, Calif., USA), or other relevant software for PK analysis, and the resulting terminal half-lives (harmonic mean) determined.
Data set [2] deals with T1, human GLP-1 receptor (Homo sapiens, UniProt P43220).
T1 construct: expressed in transfected cells; host or cells: BHK cells (parent line BHKTS13), clone FCW467-12A; membrane preparation
Briefly: GLP-1 receptor binding: competitive binding assay (125I-GLP-1, SPA) on isolated membranes at low and high HSA.

Data set [3] deals with T1, human GLP-1 receptor. The experiment in a line: In vitro potency: CRE luciferase reporter gene assay in BHK cells expressing the human GLP-1 receptor. It counts as cell-based. An outline of the steps:
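Whole-cell assay in stably transfected BHK cells carrying CRE-driven firefly luciferase, 5×10^3 cells/well, in assay buffer with 2% ovalbumin and 0.2% Pluronic F-68. Compound working solutions were 0.2 μM.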
On the technique in general: A reporter such as luciferase makes a cellular process visible.

Where [4] appears, read: Low HSA IC50, low HSA (max. 0.001% final assay concentration).
The mark [5] stands for this setting: high HSA (2.0% final assay concentration), read-out: High HSA IC50.
[6] abbreviates: whole cell reporter gene assay, BHK cells, human GLP-1 receptor, average of at least two replicates, read-out: EC50.

As usually defined, the half-life is the time in which the quantity being followed falls by half. A lower half-life goes with rapid decline. As usually defined, the IC50 is the concentration that gives 50% inhibition. In general, EC50 refers to the concentration that produces a half-maximal response.

T1 sequence (P43220 24-463): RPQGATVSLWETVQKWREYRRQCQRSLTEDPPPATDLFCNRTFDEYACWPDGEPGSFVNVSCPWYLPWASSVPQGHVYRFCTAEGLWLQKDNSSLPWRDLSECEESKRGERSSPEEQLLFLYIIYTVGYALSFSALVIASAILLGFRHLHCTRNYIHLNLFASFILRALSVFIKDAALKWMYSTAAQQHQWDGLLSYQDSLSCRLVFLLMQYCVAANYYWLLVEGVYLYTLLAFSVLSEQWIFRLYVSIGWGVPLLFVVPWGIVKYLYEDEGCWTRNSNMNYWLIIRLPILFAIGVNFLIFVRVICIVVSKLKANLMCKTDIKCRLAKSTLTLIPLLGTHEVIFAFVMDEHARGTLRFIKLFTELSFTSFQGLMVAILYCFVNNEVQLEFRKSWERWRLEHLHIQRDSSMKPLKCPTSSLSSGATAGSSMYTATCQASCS

`CC[C@H](C)[C@H](NC(=O)[C@H](Cc1ccccc1)NC(=O)[C@H](CCC(=O)O)NC(=O)[C@H](CCCNC(=N)N)NC(=O)[C@H](C)NC(=O)[C@H](C)NC(=O)[C@H](CCC(N)=O)NC(=O)[C@H](CCC(=O)O)NC(=O)[C@H](CCC(=O)O)NC(=O)[C@H](CC(C)C)NC(=O)[C@H](Cc1ccc(O)cc1)NC(=O)[C@H](CO)NC(=O)[C@H](CO)NC(=O)[C@@H](NC(=O)[C@H](CC(=O)O)NC(=O)[C@H](CO)NC(=O)[C@@H](NC(=O)[C@H](Cc1ccccc1)NC(=O)[C@@H](NC(=O)CNC(=O)[C@H](CCC(=O)O)NC(=O)C(C)(C)NC(=O)[C@@H](N)Cc1c[nH]cn1)[C@@H](C)O)[C@@H](C)O)C(C)C)C(=O)N[C@@H](C)C(=O)N[C@@H](Cc1c[nH]c2ccccc12)C(=O)N[C@@H](CC(C)C)C(=O)N[C@H](C(=O)N[C@@H](CCCNC(=N)N)C(=O)NCC(=O)N[C@@H](CCCNC(=N)N)C(=O)N[C@@H](CCCCNC(=O)CN(CCCNC(=O)COCCOCCNC(=O)COCCOCCNC(=O)COCCOCCNC(=O)COCCOCCNC(=O)COCCOCCNC(=O)[C@@H](N)CCCCNC(=O)[C@@H](N)CCCCNC(=O)CCCCCCCCCCCCCCCCCCC(=O)O)CCCNC(=O)COCCOCCNC(=O)COCCOCCNC(=O)COCCOCCNC(=O)COCCOCCNC(=O)COCCOCCNC(=O)[C@@H](N)CCCCNC(=O)[C@@H](N)CCCCNC(=O)CCCCCCCCCCCCCCCCCCC(=O)O)C(=O)O)C(C)C` [Example 1, N{Epsilon-37}-[2-[bis[3-[[2-[2-[2-[[2-[2-[2-[[2-[2-[2-[[2-[2-[2-[[2-[2-[2-[[(2S)-2-amino-6-[[(2S)-2-amino-6-(19-carboxynonadecanoylamino)hexanoyl]amino]hexanoyl]amino]ethoxy]ethoxy]acetyl]amino]ethoxy]ethoxy]acetyl]amino]ethoxy]ethoxy]acetyl]amino]ethoxy]ethoxy]acetyl]amino]ethoxy]ethoxy]acetyl]amino]propyl]amino]acetyl]-[Ab8,Glu22,Arg26,Arg34,Lys37]-GLP-1-(7-37)-peptide]: the half-life in data set [1] is 130 h.

`CC[C@H](C)[C@H](NC(=O)[C@H](Cc1ccccc1)NC(=O)[C@H](CCC(=O)O)NC(=O)[C@H](CCCNC(=N)N)NC(=O)[C@H](C)NC(=O)[C@H](C)NC(=O)[C@H](CCC(N)=O)NC(=O)[C@H](CCC(=O)O)NC(=O)[C@H](CCC(=O)O)NC(=O)[C@H](CC(C)C)NC(=O)[C@H](Cc1ccc(O)cc1)NC(=O)[C@H](CO)NC(=O)[C@H](CO)NC(=O)[C@@H](NC(=O)[C@H](CC(=O)O)NC(=O)[C@H](CO)NC(=O)[C@@H](NC(=O)[C@H](Cc1ccccc1)NC(=O)[C@@H](NC(=O)CNC(=O)[C@H](CCC(=O)O)NC(=O)C(C)(C)NC(=O)[C@@H](N)Cc1c[nH]cn1)[C@@H](C)O)[C@@H](C)O)C(C)C)C(=O)N[C@@H](C)C(=O)N[C@@H](Cc1c[nH]c2ccccc12)C(=O)N[C@@H](CC(C)C)C(=O)N[C@H](C(=O)N[C@@H](CCCNC(=N)N)C(=O)NCC(=O)N[C@@H](CCCNC(=N)N)C(=O)N[C@@H](CCCCNC(=O)CN(CCCNC(=O)CCOCCOCCOCCOCCNC(=O)CCOCCOCCOCCOCCNC(=O)CCOCCOCCOCCOCCNC(=O)[C@@H](N)CCCCNC(=O)[C@@H](N)CCCCNC(=O)CCCCCCCCCCCCCCCCCCC(=O)O)CCCNC(=O)CCOCCOCCOCCOCCNC(=O)CCOCCOCCOCCOCCNC(=O)CCOCCOCCOCCOCCNC(=O)[C@@H](N)CCCCNC(=O)[C@@H](N)CCCCNC(=O)CCCCCCCCCCCCCCCCCCC(=O)O)C(=O)O)C(C)C` [Example 5, N{Epsilon-37}-[2-[bis[3-[3-[2-[2-[2-[2-[3-[2-[2-[2-[2-[3-[2-[2-[2-[2-[[(2S)-2-amino-6-[[(2S)-2-amino-6-(19-carboxynonadecanoylamino)hexanoyl]amino]hexanoyl]amino]ethoxy]ethoxy]ethoxy]ethoxy]propanoylamino]ethoxy]ethoxy]ethoxy]ethoxy]propanoylamino]ethoxy]ethoxy]ethoxy]ethoxy]propanoylamino]propyl]amino]acetyl]-[Aib8,Glu22,Arg26,Arg34,Lys37]-GLP-1-(7-37)-peptide] had a half-life in data set [1] of 122 h.

Regarding `CC[C@H](C)[C@H](NC(=O)[C@H](Cc1ccccc1)NC(=O)[C@H](CCC(=O)O)NC(=O)[C@H](CCCNC(=N)N)NC(=O)[C@H](C)NC(=O)[C@H](C)NC(=O)[C@H](CCC(N)=O)NC(=O)[C@H](CCC(=O)O)NC(=O)[C@H](CCC(=O)O)NC(=O)[C@H](CC(C)C)NC(=O)[C@H](Cc1ccc(O)cc1)NC(=O)[C@H](CO)NC(=O)[C@H](CO)NC(=O)[C@@H](NC(=O)[C@H](CC(=O)O)NC(=O)[C@H](CO)NC(=O)[C@@H](NC(=O)[C@H](Cc1ccccc1)NC(=O)[C@@H](NC(=O)CNC(=O)[C@H](CCC(=O)O)NC(=O)C(C)(C)NC(=O)[C@@H](N)Cc1c[nH]cn1)[C@@H](C)O)[C@@H](C)O)C(C)C)C(=O)N[C@@H](C)C(=O)N[C@@H](Cc1c[nH]c2ccccc12)C(=O)N[C@@H](CC(C)C)C(=O)N[C@H](C(=O)N[C@@H](CCCNC(=N)N)C(=O)NCC(=O)N[C@@H](CCCNC(=N)N)C(=O)N[C@@H](CCCCNC(=O)COCCOCCNC(=O)COCCOCCNC(=O)COCCOCCNC(=O)COCCOCCNC(=O)COCCOCCNC(=O)COCCOCCNC(=O)CN(CCCNC(=O)[C@H](CO)NC(=O)CC[C@H](NC(=O)[C@H]1CC[C@H](CNC(=O)CCCCCCCCCCCCCCCCCCC(=O)O)CC1)C(=O)O)CCCNC(=O)[C@H](CO)NC(=O)CC[C@H](NC(=O)[C@H]1CC[C@H](CNC(=O)CCCCCCCCCCCCCCCCCCC(=O)O)CC1)C(=O)O)C(=O)O)C(C)C` [Example 25], the IC50 in data set [2] (setting [4]) is 0.91 nM; in data set [2] (setting [5]), 41 nM. For the same molecule, the EC50 in data set [3] (setting [6]) was 0.03 nM.

Turning to `CC[C@H](C)[C@H](NC(=O)[C@H](Cc1ccccc1)NC(=O)[C@H](CCC(=O)O)NC(=O)[C@H](CCCNC(=N)N)NC(=O)[C@H](C)NC(=O)[C@H](C)NC(=O)[C@H](CCC(N)=O)NC(=O)[C@H](CCC(=O)O)NC(=O)[C@H](CCC(=O)O)NC(=O)[C@H](CC(C)C)NC(=O)[C@H](Cc1ccc(O)cc1)NC(=O)[C@H](CO)NC(=O)[C@H](CO)NC(=O)[C@@H](NC(=O)[C@H](CC(=O)O)NC(=O)[C@H](CO)NC(=O)[C@@H](NC(=O)[C@H](Cc1ccccc1)NC(=O)[C@@H](NC(=O)CNC(=O)[C@H](CCC(=O)O)NC(=O)C(C)(C)NC(=O)[C@@H](N)Cc1c[nH]cn1)[C@@H](C)O)[C@@H](C)O)C(C)C)C(=O)N[C@@H](C)C(=O)N[C@@H](Cc1c[nH]c2ccccc12)C(=O)N[C@@H](CC(C)C)C(=O)N[C@H](C(=O)N[C@@H](CCCNC(=N)N)C(=O)NCC(=O)N[C@@H](CCCNC(=N)N)C(=O)N[C@@H](CCCCNC(=O)CN(CCCNC(=O)COCCOCCNC(=O)COCCOCCNC(=O)COCCOCCNC(=O)COCCOCCNC(=O)COCCOCCNC(=O)COCCOCCNC(=O)CC[C@H](NC(=O)[C@H]1CC[C@H](CNC(=O)CCCCCCCCCCCCCCCS(=O)(=O)O)CC1)C(=O)O)CCCNC(=O)COCCOCCNC(=O)COCCOCCNC(=O)COCCOCCNC(=O)COCCOCCNC(=O)COCCOCCNC(=O)COCCOCCNC(=O)CC[C@H](NC(=O)[C@H]1CC[C@H](CNC(=O)CCCCCCCCCCCCCCCS(=O)(=O)O)CC1)C(=O)O)C(=O)O)C(C)C` [Example 24], the figures for the IC50 in data set [2] (setting [4]) and in data set [2] (setting [5]) were 0.16 nM and 32 nM, respectively. Further, the EC50 in data set [3] (setting [6]) was 0.0018 nM.

Consider `CC[C@H](C)[C@H](NC(=O)[C@H](Cc1ccccc1)NC(=O)[C@H](CCC(=O)O)NC(=O)[C@H](CCCNC(=N)N)NC(=O)[C@H](C)NC(=O)[C@H](C)NC(=O)[C@H](CCC(N)=O)NC(=O)[C@H](CCC(=O)O)NC(=O)[C@H](CCC(=O)O)NC(=O)[C@H](CC(C)C)NC(=O)[C@H](Cc1ccc(O)cc1)NC(=O)[C@H](CO)NC(=O)[C@H](CO)NC(=O)[C@@H](NC(=O)[C@H](CC(=O)O)NC(=O)[C@H](CO)NC(=O)[C@@H](NC(=O)[C@H](Cc1ccccc1)NC(=O)[C@@H](NC(=O)CNC(=O)[C@H](CCC(=O)O)NC(=O)C(C)(C)NC(=O)[C@@H](N)Cc1c[nH]cn1)[C@@H](C)O)[C@@H](C)O)C(C)C)C(=O)N[C@@H](C)C(=O)N[C@@H](Cc1c[nH]c2ccccc12)C(=O)N[C@@H](CC(C)C)C(=O)N[C@H](C(=O)N[C@@H](CCCNC(=N)N)C(=O)NCC(=O)N[C@@H](CCCNC(=N)N)C(=O)N[C@@H](CCCCNC(=O)CN(CCCNC(=O)COCCOCCNC(=O)COCCOCCNC(=O)COCCOCCNC(=O)COCCOCCNC(=O)COCCOCCNC(=O)COCCOCCNC(=O)[C@@H](N)CCCCNC(=O)[C@@H](N)CCCCNC(=O)CCCNC(=O)CCCCCCCCCCCCCCCS(=O)(=O)O)CCCNC(=O)COCCOCCNC(=O)COCCOCCNC(=O)COCCOCCNC(=O)COCCOCCNC(=O)COCCOCCNC(=O)COCCOCCNC(=O)[C@@H](N)CCCCNC(=O)[C@@H](N)CCCCNC(=O)CCCNC(=O)CCCCCCCCCCCCCCCS(=O)(=O)O)C(=O)O)C(C)C` [Example 15], for which the IC50 came out at 3.4 nM in data set [2] (High HSA IC50, high HSA (2.0% final assay concentration)) and 0.05 nM in data set [2] (setting [4]). In addition, the EC50 in data set [3] worked out at 0.0056 nM.
